Test system: ovarian cancer cell lines
Assay: Cell growth inhibition (viable cell count, trypan blue exclusion) of ovarian cancer cell lines after seven days with inhibitor; logIC50 modelled against alteration status
Assay type: cell-based, human
Conditions: for increased sensitivity to PARP inhibition: from difference of mean log IC50
Method: To begin to understand the relationship between genomic, epigenetic and expression alterations and response to pathway inhibitors, a screening platform was developed for evaluating cellular proliferation in the presence of candidate therapeutic agents. As an example of the analyses that can be performed and the genotype-phenotype connections that can be obtained, IC20, IC50, and IC80 were measured after seven days of incubation for three inhibitors, GNE-493, BMN673, and MEK162, targeting PI3K, PARP, and MEK proteins, respectively (Table 11). Aggregating the molecular information from multiple platforms to the gene level, analyses was limited to genes that were altered in three or more of the 45 cell lines. Alterations that tend to be mutually exclusive between cell lines were combined, including genes in the PI3K pathway (PIK3CA and PPP2R1A) and the genes in the TGFBR pathway (SMAD3 and SMAD4). As tumors with homologous recombination deficiencies (HRD) have been known to be sensitive to PARP inhibitors, covariates summarizing the extent of genome-wide structural alterations for the PARP inhibitor BMN673 were additionally added. A priori it was hypothesized that most alterations would not modulate response to the targeted inhibitors. Implementing a Bayesian model averaging approach to variable selection as has been considered for other biomarkers (see, e.g., Viallefont et al., 2001 Statistics in Medicine 20:3215-3230; Neto et al., 2014 Pacific Symposium on Biocomputing. Pacific Symposium on Biocomputing: 27-38; and Meisner et al., 2018 Biomarker research 6:3), a positive prior probability that the coefficient for each gene is exactly zero was specified. Given the genes or combination of genes and structural variant summaries, the space of possible single- and multi-variate models for logIC50 was explored by Markov Chain Monte Carlo. Relevant posterior summaries available for each inhibitor include the probability that the regression coefficient is non-zero and the posterior distribution of the regression coefficients.
Cell lines were obtained from multiple sources (Table 1). Cells were plated into 24-well tissue culture plates at a density of 2×10^5 to 5×10^5 cells per well and grown in cell-line-specific medium without or with increasing concentrations of their respective drugs (ranging between […]).
Cells were counted on day 7 using an automated cell viability assay (Vi-CELL XR Cell Viability Analyzer, Beckman Coulter, Fullerton, Calif., USA), a video imaging system that uses an automated trypan blue exclusion protocol. Both adherent and floating viable cells were counted for treatment and control wells. Growth inhibition (GI) was calculated as a percentage of untreated controls. The log of the fractional GI was then plotted against the log of the drug concentration and the IC50 values were interpolated from the resulting linear regression curve fit (CalcuSyn; Biosoft, Ferguson, Mo., USA). Experiments were performed thrice in duplicate for each cell line.
Bayesian model averaging: models of the form
were considered where Ci denotes the logIC50 and xi;j an indicator for the alteration status (0 not altered, 1 altered) of feature j in cell line i. The regression coefficient for feature j is the product of a binary indicator zj and a real number hj. A modified g-prior was used for γ such that γj was zero whenever zj was zero. For the vector of γ's with non-zero z's, a multivariate normal prior was used. The space of the possible 2p models was explored using a Gibbs sampler. The binary features comprising the x's included somatic mutations, somatic structural variants (deletions, amplifications, in-frame fusions), methylation, and under- or over-expression. For the PARP inhibitor, the number of intra-chromosomal rearrangements and the HRD score as potential markers for HRD were additionally considered. […]

Cn1cnc2c(F)c(Nc3ccc(Br)cc3F)c(C(=O)NOCCO)cc21 [MEK-162, binimetinib]
increased sensitivity (cell lines with mutations or deletions in SMAD3 or SMAD4): 89%

Cn1ncnc1[C@H]1c2n[nH]c(=O)c3cc(F)cc(c23)N[C@@H]1c1ccc(F)cc1 [BMN673, talazoparib]
increased sensitivity to PARP inhibition (cell lines with MYC amplification vs without, 90% CI: 99%-64%): 93% | association with sensitivity to PARP inhibition (cell lines with inactivating BRCA1/2 mutations, HRD score, PARP1 expression): trend towards increased sensitivity to PARP inhibition but were not statistically significant | increased sensitivity to PARP inhibition (cell lines with increased number of genome-wide rearrangements vs without, 90% CI, 96%-43%): 86%

CC(C)(O)c1cc2nc(-c3cnc(N)nc3)nc(N3CCOCC3)c2s1 [GNE-493]
increased sensitivity (cancer cell lines with mutations in PARP1 or PPP2R1A (so in the source)): 66% | difference in mean logIC50 by alteration status (cell lines with mutations in PIK3CA or PPP2R1A vs without, 7 days incubation): −0.63 | increased sensitivity to the inhibitor (cell lines with mutations in PIK3CA or PPP2R1A vs without, FIG. 6B legend, 90% HPD: 5-72): 48%

Reference: US20210355545A1, “METHODS AND MATERIALS FOR ASSESSING AND TREATING CANCER” (The Johns Hopkins University, priority 2018, published 2021)
